Assay results from ChEMBL document CHEMBL4028816, “Discovery of a potent inhibitor of MELK that inhibits expression of the anti-apoptotic protein Mcl-1 and TNBC cell growth” (Bioorg Med Chem, 2017).
Activity calls are given as the source filed them. The rule behind the calls is not given here.

What was measured:
[1] = target: Mitogen-activated protein kinase 1 (Homo sapiens, UniProt P28482); test: Inhibition of ERK2 (unknown origin) using Ets-1 as substrate measured after 30 mins in presence of [gamma32P]ATP by liquid scintillation counting method
Chain of Mitogen-activated protein kinase 1 (P28482 whole entry): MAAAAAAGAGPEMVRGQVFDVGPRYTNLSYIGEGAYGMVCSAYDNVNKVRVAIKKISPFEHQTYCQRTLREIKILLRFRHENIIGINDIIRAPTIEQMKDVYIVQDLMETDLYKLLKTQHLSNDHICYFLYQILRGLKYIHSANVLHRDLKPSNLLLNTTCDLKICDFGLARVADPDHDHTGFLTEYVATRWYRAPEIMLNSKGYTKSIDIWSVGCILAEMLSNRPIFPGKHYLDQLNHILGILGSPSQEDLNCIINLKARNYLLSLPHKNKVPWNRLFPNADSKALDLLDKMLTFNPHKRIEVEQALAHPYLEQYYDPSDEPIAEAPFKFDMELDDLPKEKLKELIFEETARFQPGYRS

[2] = target: AMP-activated protein kinase, AMPK; test: Inhibition of AMPK (unknown origin) using SAMS peptide as substrate measured after 30 mins in presence of [gamma32P]ATP by liquid scintillation counting method; set-up: species or system Homo sapiens
[3] = system: BT-549; test: Antiproliferative activity against human BT549 cells up to 20 uM after 72 hrs by CellTitre-Blue assay; type: functional, cell-based
[4] = system: MCF-10A; test: Antiproliferative activity against human MCF10A cells at 10 uM after 72 hrs by CellTitre-Blue assay; type: functional, cell-based
[5] = system: SUM-159-PT; test: Antiproliferative activity against human SUM159 cells up to 20 uM after 72 hrs by CellTitre-Blue assay; type: functional, cell-based
[6] = system: HCC70; test: Antiproliferative activity against human HCC70 cells up to 20 uM after 72 hrs by CellTitre-Blue assay; type: functional, cell-based
[7] = target: Maternal embryonic leucine zipper kinase (Homo sapiens, UniProt Q14680); test: Inhibition of His6-tagged MELK catalytic domain (1 to 340 residues) (unknown origin) expressed in Escherichia coli BL21 (DE3) cells using Bcl-GL as substrate measured after 30 mins in presence of [gamma32P]ATP by liquid scintillation counting method
Chain of Maternal embryonic leucine zipper kinase (Q14680 whole entry, the tested form may be a part): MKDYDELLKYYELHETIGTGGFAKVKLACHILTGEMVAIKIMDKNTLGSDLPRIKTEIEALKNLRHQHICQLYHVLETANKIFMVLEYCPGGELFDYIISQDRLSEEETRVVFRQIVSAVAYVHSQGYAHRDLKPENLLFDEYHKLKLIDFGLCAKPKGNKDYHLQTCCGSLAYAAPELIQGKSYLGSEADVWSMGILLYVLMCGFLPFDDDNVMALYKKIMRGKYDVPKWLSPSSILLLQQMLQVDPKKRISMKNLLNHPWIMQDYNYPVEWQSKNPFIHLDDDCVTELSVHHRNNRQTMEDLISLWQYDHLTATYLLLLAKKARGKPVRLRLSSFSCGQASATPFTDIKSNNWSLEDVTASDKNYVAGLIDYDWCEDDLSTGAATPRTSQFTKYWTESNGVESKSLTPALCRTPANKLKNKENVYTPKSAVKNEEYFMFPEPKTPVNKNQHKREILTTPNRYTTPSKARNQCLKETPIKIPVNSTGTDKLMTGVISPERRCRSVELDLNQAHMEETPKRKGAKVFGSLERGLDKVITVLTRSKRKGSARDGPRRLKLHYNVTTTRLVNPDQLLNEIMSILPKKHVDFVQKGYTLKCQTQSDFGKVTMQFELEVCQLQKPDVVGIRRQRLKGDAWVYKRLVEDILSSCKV

## CN1CCN(CC(=O)N(C)c2ccc(N/C(=C3\C(=O)Nc4ccc(C(=O)O)cc43)c3ccccc3)cc2)CC1
[1]
  Ki: 19000 nM
[2]
  Ki: 4.9 nM

## CN1CCN(CC(=O)N(C)c2ccc(N/C(=C3\C(=O)Nc4ccccc43)c3ccccc3)cc2)CC1
[2]
  Ki: 4.2 nM

## COC(=O)c1ccc2c(c1)/C(=C(/Nc1ccc(N(C)C(=O)CN3CCN(C)CC3)cc1)c1ccccc1)C(=O)N2
[1]
  Ki: 3000 nM
[3]
  Activity: Active
[2]
  Ki: 9.2 nM
[4]
  Activity: inactive
[5]
  Activity: Active
[6]
  Activity: Active

## CN1CCN(CC(=O)N(C)c2ccc(N/C(=C3\C(=O)Nc4cc(C(=O)NCCCN)ccc43)c3ccccc3)cc2)CC1
[7]
  IC50: > 5000 nM
  Ki: > 650 nM
